In paper PMC10569036:

What was measured:
[1] = shake flask on a mixture of 185; loss from the water phase only; LC-QTOF peak areas; settings: room
[2] = shake flask on a mixture of 185; loss from the water phase only; LC-Orbitrap peak areas; settings: room

Row | Structure (SMILES) | log partition 1-octanol / HPLC water, unbuffered, traces of methanol / DMSO [1] [log10] | log partition butyl acetate / HPLC water, unbuffered, traces of methanol / DMSO [1] [log10] | log partition chloroform / HPLC water, unbuffered, traces of methanol / DMSO [1] [log10] | log partition cyclohexane / HPLC water, unbuffered, traces of methanol / DMSO [1] [log10] | log partition dichloromethane / HPLC water, unbuffered, traces of methanol / DMSO [1] [log10] | log partition n-hexane / HPLC water, unbuffered, traces of methanol / DMSO [1] [log10] | log partition n-octane / HPLC water, unbuffered, traces of methanol / DMSO [1] [log10] | log partition n-undecane / HPLC water, unbuffered, traces of methanol / DMSO [1] [log10] | log partition oleylalcohol / HPLC water, unbuffered, traces of methanol / DMSO [1] [log10] | log partition toluene / HPLC water, unbuffered, traces of methanol / DMSO [1] [log10] | log partition 1-octanol / HPLC water, unbuffered, traces of methanol / DMSO [2] [log10] | log partition butyl acetate / HPLC water, unbuffered, traces of methanol / DMSO [2] [log10] | log partition chloroform / HPLC water, unbuffered, traces of methanol / DMSO [2] [log10] | log partition cyclohexane / HPLC water, unbuffered, traces of methanol / DMSO [2] [log10] | log partition dichloromethane / HPLC water, unbuffered, traces of methanol / DMSO [2] [log10] | log partition n-hexane / HPLC water, unbuffered, traces of methanol / DMSO [2] [log10] | log partition n-octane / HPLC water, unbuffered, traces of methanol / DMSO [2] [log10] | log partition n-undecane / HPLC water, unbuffered, traces of methanol / DMSO [2] [log10] | log partition oleylalcohol / HPLC water, unbuffered, traces of methanol / DMSO [2] [log10] | log partition toluene / HPLC water, unbuffered, traces of methanol / DMSO [2] [log10]
1 | Cc1ccc([N+](=O)[O-])cc1S(=O)(=O)O | 2.399 | 2.641 | 2.843 | 0.5479 | 2.477 | 0.3824 | 0.4393 | 0.4122 | 2.608 | 2.304 | 1.274 | 1.798 | 2.228 | 0.6608 | 2.4 | 0.3087 | 0.3589 | 0.261 | 0.9359 | 1.703
2 | c1coc(-c2nc3ccccc3[nH]2)c1 | 1.514 | 1.818 | 1.228 | -0.8199 | 1.187 | -1.048 | -0.9024 | -1.111 | 1.545 | 0.6693 | 1.137 | 1.189 | 0.9478 | -0.1735 | 1.025 | -0.2475 | -0.314 | -0.8377 | 1.389 | 0.5283
3 | Nc1cc2c3c(c1)C(c1ccccc1)=N[C@@H](NC(=O)c1cccnc1)C(=O)N3CC2 | 1.4 | 1.224 | 1.953 | -0.8456 | 2.001 | -0.527 | -1.018 | -1.615 | 1.111 | 0.4515 | 1.8 | 1.849 | 1.811 | -0.6201 | 1.949 | -0.5688 | -0.5885 | -0.7259 | 1.341 | 0.4674
4 | CCCOC(=O)c1ccc(C(=O)OCCC)nc1 | 2.274 | 2.305 | 2.347 | 2.074 | 2.554 | 2.244 | 2.086 | 2.019 | 2.412 | 2.485 | 1.279 | 1.476 | 1.242 | 1.195 | 1.399 | 1.051 | 1.355 | 0.8718 | 1.396 | 1.5
